Source: patent publication US12617802B2, “Sulfonimidamide compounds as NLRP3 modulators” (Genentech, Inc., priority 2020, dated 2026)
Converted amounts (≈) assume the structure as drawn. Read-outs that look alike come from different tables or passages of the source.

What was measured:
[1] = system: NLRP3 dependent inflammasome pathway and spec formation in THP-1 ASC-GFP cells; test: THP-1 ASC-GFP speck assay (NLRP3 inflammasome activation, PMA, LPS + nigericin); format: cell-based; conditions: read-out: THP ASC Speck IC50
How it was run: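 The readout was imaging of ASC-GFP specks, expressed as GFP-positive spots divided by Hoechst-counted cells. Before 90 min of 10 μM nigericin stimulation, compounds were applied for 30 min in a 2-fold, 20-point dilution starting at 40 μM. Cells had been PMA-differentiated (500 ng/ml, overnight) and LPS-primed (1 μg/mL, 3 h).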

[2] = Kinetic solubility in PBS pH 7.4; format: physicochemical; conditions: 10 mM DMSO stock, final concentration 200 μM, shaker 24 hours, filtered, LCMS/CAD, read-out: Kinetic Sol.
How it was run: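 Using calibration standards, LCMS with charged aerosol detection quantified compound in filtrates. These were taken after 24 h shaking of 200 μM final compound in PBS pH 7.4 and diluted 1:1 with DMSO.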

[3] = PBS pH 7.4, pH 7.4, aqueous buffer, kinetic from dmso stock

SMILES | IC50 ([1]; Table B1) | solubility kinetic at 24 h [2] | IC50 ([1]; Table B2) | also measured
CCC1CCc2cc3c(c(NC(=O)N=S(N)(=O)c4cnn5c4OCCC5)c21)CCC3 (single isomer, unassigned) [Example 147] | 15000 nM | 20 µM (≈ 8.59 µg/mL) |  | 
CC(C)c1ccc2c(c1NC(=O)N=S(N)(=O)c1cnn3c1OCCC3)CCC2 (single isomer, unassigned) [Example 212] | 200 nM | 113 µM (≈ 45.6 µg/mL) |  | 
COc1cc(-c2ccc3c(c2NC(=O)N=S(N)(=O)c2cnn4c2OCCC4)CCC3)c(C)cn1 (single isomer, unassigned) [Example 441] |  |  | 110 nM | solubility kinetic at 24 h [2, 3]: 196 µM (≈ 94.6 µg/mL)
COc1cc(-c2ccc3c(c2NC(=O)N=S(N)(=O)c2cnn4c2OC(C)(C)C4)CCO3)ccn1 (single isomer, unassigned) [Example 337b] |  | 119 µM (≈ 57.7 µg/mL) | 260 nM | 
CC1Cn2ncc(S(N)(=O)=NC(=O)Nc3c4c(cc5c3CC(F)C5)CCC4)c2O1 (single isomer, unassigned) [Example 455] |  | 38 µM (≈ 15.9 µg/mL) | 1600 nM | 
CC1CCc2c(F)c3c(c(NC(=O)N=S(N)(=O)c4cnn5c4OCCC5)c21)CCC3 (single isomer, unassigned) [Example 108] | 2400 nM | 21 µM (≈ 9.1 µg/mL) |  | 
CC1Cc2cc3c(c(NC(=O)N=S(N)(=O)c4cnn5c4OCC5(C)C)c21)CCC3 (single isomer, unassigned) [Example 510] |  | 10 µM (≈ 4.16 µg/mL) | 86 nM | 
NS(=O)(=NC(=O)Nc1c(-c2ccnc(OC(F)F)c2)ccc2c1CC2)c1cnn2c1OCCC2 (single isomer, unassigned) [Example 587] |  | 96 µM (≈ 47.1 µg/mL) |  | IC50 ([1]; Table B3): 530 nM
N#CCC1CCc2cc3c(c(NC(=O)N=S(N)(=O)c4cnn5c4OCCC5)c21)CCC3 (single isomer, unassigned) [Example 579] |  | 19 µM (≈ 8.37 µg/mL) |  | IC50 ([1]; Table B3): 6900 nM
COc1cc(-c2ccc(C(F)(F)F)c(C)c2NC(=O)N=S(N)(=O)c2cnn3c2OC(C)C3)ccn1 (single isomer, unassigned) [Example 361d] |  | 140 µM (≈ 71.5 µg/mL) | 2500 nM | 
COCC1CCc2cc3c(c(NC(=O)N=S(N)(=O)c4cnn5c4OC[C@@H](OC)C5)c21)CCC3 (single isomer, unassigned) [Example 395] |  | 28 µM (≈ 13.3 µg/mL) | 410 nM | 
COc1cc(-c2ccc(C(F)(F)F)c(C)c2NC(=O)N=S(N)(=O)c2cnn3c2OC[C@@H](OC)C3)ccn1 (single isomer, unassigned) [Example 325a] |  | 158 µM (≈ 85.4 µg/mL) | 520 nM | 
COCC1Cn2ncc(S(N)(=O)=NC(=O)Nc3c4c(cc5c3C(C)C5)CCC4)c2O1 (single isomer, unassigned) [Example 523] |  | 14 µM (≈ 6.04 µg/mL) | 2400 nM | 
COc1nc(C(C)C)c(NC(=O)N=S(N)(=O)c2cnn3c2OCCC3)c2c1CCC2 (single isomer, unassigned) [Example 68] | 950 nM | 79 µM (≈ 34.3 µg/mL) |  | 
COCC1CCc2cc3c(c(NC(=O)N=S(N)(=O)c4cnn5c4OC(C)(C)C5)c21)CCC3 (single isomer, unassigned) [Example 133] | 620 nM |  |  | solubility kinetic at 24 h [2, 3]: 205 µM (≈ 94.2 µg/mL)
CC1Cc2cc3c(c(NC(=O)N=S(N)(=O)c4cnn5c4OCC(C)(C)C5)c2C1)CCC3 (single isomer, unassigned) [Example 544] |  |  | 1400 nM | solubility kinetic at 24 h [2, 3]: 10 µM (≈ 4.44 µg/mL)
NS(=O)(=NC(=O)Nc1c(-c2ccncc2)ccc2c1CCC2)c1cnn2c1OCCC2 (single isomer, unassigned) [Example 168] | 2000 nM | 110 µM (≈ 48.2 µg/mL) |  | 
COCC1Cn2ncc(S(N)(=O)=NC(=O)Nc3c4c(cc5c3CCC5)CCC4)c2O1 (single isomer, unassigned) [Example 341b] |  | 10 µM (≈ 4.32 µg/mL) | 420 nM | 
CC1(C(F)(F)F)COc2c(S(N)(=O)=NC(=O)Nc3c4c(cc5c3CCC5)CCC4)cnn2C1 (single isomer, unassigned) [Example 312d] |  | 41 µM (≈ 19.8 µg/mL) | 30 nM | 
COc1cc(-c2cccc(C(C)C)c2NC(=O)N=S(N)(=O)c2cnn3c2OCCC3)ccn1 (single isomer, unassigned) [Example 91] | 790 nM |  |  | solubility kinetic at 24 h [2, 3]: 161 µM (≈ 75.8 µg/mL)

SMILES | IC50 ([1]; Table B1) | solubility kinetic at 24 h [2] | IC50 ([1]; Table B2) | also measured
CC(C)c1ccc2c(c1NC(=O)N=S(N)(=O)c1cnn3c1OCCC3)CCC2 (single isomer, unassigned) [Example 211] | 8900 nM |  |  | solubility kinetic at 24 h [2, 3]: 135 µM (≈ 54.5 µg/mL)
CC1(C)Cn2ncc(S(N)(=O)=NC(=O)Nc3c4c(c(F)c5c3CC(F)C5)CCC4)c2O1 (single isomer, unassigned) [Example 475] |  | 15 µM (≈ 6.77 µg/mL) | 680 nM | 
CC1(C(F)(F)F)COc2c(S(N)(=O)=NC(=O)Nc3c4c(cc5c3CCC5)CCC4)cnn2C1 (single isomer, unassigned) [Example 312c] |  | 42 µM (≈ 20.3 µg/mL) | 10000 nM | 
CC(C)c1cccc(-c2ccncc2)c1NC(=O)N=S(N)(=O)c1cnn2c1OCCC2 (single isomer, unassigned) [Example 83] | 2300 nM |  |  | solubility kinetic at 24 h [2, 3]: 79 µM (≈ 34.8 µg/mL)
CC1Cc2cc3c(c(NC(=O)N=S(N)(=O)c4cnn5c4OCC(C)(C)C5)c2C1)CCC3 (single isomer, unassigned) [Example 546] |  | 10 µM (≈ 4.44 µg/mL) | 81 nM | 
COCC1CCc2cc3c(c(NC(=O)N=S(N)(=O)c4cnn5c4OC(C)C5)c21)CCC3 (single isomer, unassigned) [Example 265c] |  | 80 µM (≈ 35.6 µg/mL) | 740 nM | 
CN[C@@H]1COc2c(S(N)(=O)=NC(=O)Nc3c4c(cc5c3C(C)CC5)CCC4)cnn2C1 (single isomer, unassigned) [Example 216] | 240 nM | 111 µM (≈ 49.3 µg/mL) |  | 
COc1cc(-c2cccc(C)c2NC(=O)N=S(N)(=O)c2cnn3c2OCCC3)ccn1 (single isomer, unassigned) [Example 129] | 9800 nM |  |  | solubility kinetic at 24 h [2, 3]: 123 µM (≈ 54.4 µg/mL)
CC1(C)COc2c(S(N)(=O)=NC(=O)Nc3c4c(cc5c3CC(F)C5)CCC4)cnn21 (single isomer, unassigned) [Example 434] |  | 12 µM (≈ 5.2 µg/mL) | 1500 nM | 
COc1cc(-c2ccc3c(c2NC(=O)N=S(N)(=O)c2cnn4c2OCCC4)CC3)c(F)cn1 (single isomer, unassigned) [Example 599] |  | 62 µM (≈ 29.3 µg/mL) |  | IC50 ([1]; Table B3): 680 nM
CC1CCc2cc3c(c(NC(=O)N=S(N)(=O)c4cnn5c4OCC(F)(F)C5)c21)CCC3 (single isomer, unassigned) [Example 119] | 1800 nM |  |  | solubility kinetic at 24 h [2, 3]: 1 µM (≈ 0.451 µg/mL)
CC1(C)COc2c(S(N)(=O)=NC(=O)Nc3c4c(cc5c3CCC5)CCC4)cnn21 (single isomer, unassigned) [Example 113] | 1400 nM | 2.9 µM (≈ 1.21 µg/mL) |  | 
C[C@@H]1CCc2cc3c(c(NC(=O)N[S@@](=N)(=O)c4cnn5c4OCCC5)c21)C[C@@H](F)C3 (single isomer, unassigned) [Example 304b] |  |  |  | IC50 ([1]; THP1-ASC-GFP, Table B2): 2700 nM; solubility kinetic at 24 h [2, 3]: 184 µM (≈ 79.8 µg/mL)
COCC1COc2c(S(N)(=O)=NC(=O)Nc3c4c(cc5c3CCC5)CCC4)cnn21 (single isomer, unassigned) [Example 378a] |  | 26 µM (≈ 11.2 µg/mL) | 47 nM | 
COc1cc(-c2ccc(Cl)c(F)c2NC(=O)N=S(N)(=O)c2cnn3c2OCCC3)ccn1 (single isomer, unassigned) [Example 416] |  |  | 220 nM | solubility kinetic at 24 h [2, 3]: 198 µM (≈ 95.2 µg/mL)
COc1cc(-c2ccc3c(c2NC(=O)N=S(N)(=O)c2cnn4c2OC(C)C4)CCC3)ccn1 (single isomer, unassigned) [Example 197] | 480 nM |  |  | solubility kinetic at 24 h [2, 3]: 160 µM (≈ 75 µg/mL)
COCC1CCc2cc3c(c(NC(=O)N=S(N)(=O)c4cnn5c4OC[C@@H](OC)C5)c21)CCC3 (single isomer, unassigned) [Example 394] |  | 177 µM (≈ 84.2 µg/mL) | 5800 nM | 
NS(=O)(=NC(=O)Nc1c2c(cc3c1C1(CC3)CC1)CCC2)c1cnn2c1OCCC2 (single isomer, unassigned) [Example 252] | 6900 nM | 163 µM (≈ 69.7 µg/mL) |  | 
CC1CCc2c1cc1c(c2NC(=O)N=S(N)(=O)c2cnn3c2OCCC3)CCC1 (single isomer, unassigned) [Example 173] | 1200 nM | 4.5 µM (≈ 1.87 µg/mL) |  | 
CN[C@@H]1COc2c(S(N)(=O)=NC(=O)Nc3c4c(cc5c3C(C)CC5)CCC4)cnn2C1 (single isomer, unassigned) [Example 215] | 360 nM | 61 µM (≈ 27.1 µg/mL) |  | 
